conditions: rat; liver microsomes; pH 7.4; 15.0 min; 1.0 µM

SMILES | half-life
CC(=O)c1c(C)c(C(=O)Nc2cccc([S+](=O)([O-])N3CCCCCC3)c2)n(C)c1C | 1.4 min
COc1cc(Cl)ccc1C(=O)Nc1nc(-c2ccccc2)cs1 | 14 min
COc1ccc(NC(=O)c2[nH]c(C)c(C(C)=O)c2C)cc1[S+](=O)([O-])Nc1ccccc1C#N | > 30 min
COc1cc(-c2nc(Cn3nnc(C(=O)Nc4cc(C)cc(C)c4)c3C)c(C)o2)cc(OC)c1OC | 20.6 min
CCN(CC)C(=O)c1ccc(O)c(OC)c1 | > 30 min
O=c1[nH]nc(Sc2ncc([N+](=O)[O-])s2)n1-c1ccc2c(c1)OCCO2 | 1.02 min
Cc1noc(C)c1-c1ccc2ncnc(NC(C)c3ccccc3)c2c1 (stereo unspecified) | 7.65 min
COc1ccc(-n2nc(C3CCCN(C(=O)C4CC4)C3)[nH]c2=O)cc1 (stereo unspecified) | > 30 min
COc1ccccc1Nc1ccnc(N2CCN(C(=O)c3ccccc3Cl)CC2)n1 | 7.9 min
CC(=O)c1c(C)[nH]c(C(=O)Nc2cccc(S(=O)(=O)N3CCOCC3)c2)c1C | 17 min
COC(=O)c1nc(-c2cccc3ccccc23)oc1OC | 14 min
CCc1cccc(CC)c1-n1c(C=C(C)C)c(C(=O)N2CCNCC2)cc(-c2nc(-c3ccc(C(F)(F)F)cc3)cs2)c1=O | > 30 min
O=C(Nc1ccc(C(=O)N2CCCC2)cc1)c1ccccc1F | > 30 min
Cc1ccc(NC(=O)c2cc(S(=O)(=O)NCCC3=CCCCC3)ccc2F)cc1F | 2.07 min
CCOc1ccc(CCNC(=O)c2cc3sccc3n2C(C)C)cc1OCC | 1.7 min
O=C(O)[C@H]1O[C@H]1C(=O)O | 14.7 min
Cc1ccc(-c2cc(C(=O)Nc3ccc(-c4noc(=O)[nH]4)cc3)c3ccccc3n2)cc1C | > 30 min
Cc1cc2ccccc2n1CC(=O)NC1CCCCC1 | 2.8 min
Cc1cc(NS(=O)(=O)c2ccc(NCCc3ccc(Cl)c(Cl)c3)cc2)no1 | 12 min
O=C1Nc2ccccc2/C1=C\c1ccc(O)cc1 | 14 min
FC(F)(F)c1ccccc1-c1nc(NCc2cccc(Cl)c2)c2ccccc2n1 | 2.97 min
Cc1ccc(CNc2nc(-c3ccccc3C(F)(F)F)nc3ccccc23)s1 | 1.7 min
NC(=O)C1CCN(c2nc(-c3cccc([N+](=O)[O-])c3)cs2)CC1 | 2.3 min
NC(=O)c1ccc(-c2ncc3cnc(-c4cccc(F)c4)cn23)cc1 | 20.7 min

SMILES | half-life
Fc1cccc(F)c1Nc1nc(-c2ccncc2)nc2ccccc12 | 29 min
CN(C)c1cccc(-c2cc(N3CCC(C(N)=O)CC3)ncn2)c1 | 21.1 min
Cc1noc(C)c1-c1ccc2ncnc(NCc3cccc(Cl)c3)c2c1 | 5.19 min
CCOc1ccc(CCNC(=O)c2cc3ccccc3n2Cc2cc(C)cc(C)n2)cc1OCC | 1.7 min
Fc1ccc(-c2ccc(Nc3nc(-c4ccncc4)nc4ccccc34)cc2F)cc1 | > 30 min
c1ccc(Nc2cc(-c3ccoc3)ncn2)cc1 | 8.6 min
COCCn1ccc2c(C3=CCOCC3)nc(-c3ccc4c(c3)CNC4=O)cc21 | 9.18 min
CC(=O)N1CCN(c2ccc(OCc3nn(C)c(C)c3-c3cccc4c(CCCOc5cc(C)c(Cl)c(C)c5)c(C(=O)O)n(Cc5cccnc5)c34)cc2)CC1 | 8.9 min
N#Cc1ccccc1-c1csc(N2CCC(C(N)=O)CC2)n1 | 3.76 min
O=C(Nc1ccc(Cl)c(S(=O)(=O)N2CCOCC2)c1)c1ccc(S(=O)(=O)N2CCCCC2)cc1 | 3 min
Cc1ccccc1N(C)C1CN([S+](=O)([O-])c2cccc(C(F)(F)F)c2)C1 | 1.98 min
O=[S+]([O-])(Nc1ccccc1)c1ccc(NCc2cccc(Cl)c2F)cc1 | 4.5 min
CCOC(=O)c1c(NC(=O)CN2CCCCC2)sc2c1CCN(C(=O)OCC)C2 | 5.2 min
O=C(COC(=O)CCC(=O)c1cccs1)NCc1ccco1 | 1 min
Fc1ccc(F)c(Nc2nc(-c3ccncc3)nc3ccccc23)c1 | 10 min
O=C(Nc1nc(-c2ccccc2)cs1)c1ccncc1NS(=O)(=O)c1ccccc1Cl | 15 min
O=C(Nc1nc(-c2ccccc2)cs1)c1ccncc1NS(=O)(=O)c1ccc(F)cc1 | 20 min
Cc1ccccc1C(=O)N1CCc2cc(-c3csc(NC(=O)Cc4ccc5c(c4)OCO5)n3)ccc21 | 10.2 min
C[C@@H]1Cc2c([nH]c3cc(Cl)c(F)cc23)[C@]2(N1)C(=O)Nc1ccc(Cl)cc12 | > 30 min
CCc1ccccc1OC[C@@H](O)CN[C@H]1CCCc2ccccc21 | 1.8 min
COc1ccc(C2C=C(c3ccc(Cl)cc3)Nc3nc(-c4ccc(Cl)cc4)nn32)cc1 (stereo unspecified) | > 30 min
Clc1cccc(Nc2nc(-c3ccncc3)nc3ccccc23)c1 | 7.7 min
CC(C)(C)C(=O)N1CCN(c2nccc(Nc3ccccc3Cl)n2)CC1 | 4.07 min
Cc1ccc(C(N)=O)cc1Nc1nccc(-c2cn(C(C)C)c3cnccc23)n1 | > 30 min

SMILES | half-life
Cc1ccc(-c2cc(C(=O)Nc3ccc(S(=O)(=O)Nc4ccc(C#N)cc4)cc3)c3ccccc3n2)cc1C | 15 min
CCOC(=O)CCNc1cc(N2CCc3ccccc3CC2)nc(-c2ccccn2)n1 | 1.5 min
COC(=N)c1nc2ccc3ncnc(Nc4ccc(F)cc4Br)c3c2s1 | > 30 min
Nc1ncnc2c1c(-c1ccc(Oc3ccccc3)cc1)cn2C1CCCC1 | 10.9 min
C[C@@]1(O)[C@H](O)[C@@H](CO)O[C@H]1n1ccc(N)nc1=O | > 30 min
COc1cccc(CNc2ccc([S+](=O)([O-])Nc3ccccc3)cc2)c1Cl | 2.4 min
N#Cc1c(NC(=O)c2cccc3ccccc23)sc2c1CCCC2 | 7.59 min
Cc1ccc(NC(=O)c2ccncc2NS(=O)(=O)c2ccc(C)cc2)cc1 | 2.9 min
COc1ccc(Cl)cc1NC(=O)c1sc2nc3c(cc2c1N)N1CCC3CC1 | 26.4 min
Oc1ccc(CNc2ccccc2Br)c2cccnc12 | 4.46 min
CCOc1cccc(C(=O)Nc2nc3c(s2)CC(C(C)(C)C)CC3)c1 (stereo unspecified) | 9.74 min
FC(F)(F)c1cccc(Nc2ccc(CNc3nc(-c4ccccc4C(F)(F)F)nc4ccccc34)cc2)c1 | 15.6 min
Cc1ccc(-c2cc(C(=O)Nc3ccncc3)c3ccccc3n2)cc1 | > 30 min
Cc1cnc(N2CCC(C(N)=O)CC2)nc1-c1cccc(N(C)C)c1 | 8.45 min
CC(=O)c1ccc(N2CCN(S(=O)(=O)c3ccc4[nH]c(=O)[nH]c4c3)CC2)cc1 | > 30 min
CN1CC=C(c2nc(Nc3ccc(F)c(F)c3)c3ccccc3n2)CC1 | 3.6 min
Cn1nc(-c2ccccc2F)c2cc(C(=O)Nc3cc(F)ccc3F)sc21 | 26.2 min
C=Cc1ccc(Cn2c(C(=O)O)c(CNCc3ccccc3)c3ccc(OC)cc32)cc1 | 9.8 min
O=S(=O)(Nc1cccc2ccncc12)c1ccc(NCc2cccc(Cl)c2O)cc1 | 9.9 min
COc1cccc(CNc2ccc(S(=O)(=O)Nc3ccc(N4CCNCC4)nc3)cc2)c1O | > 30 min
Cc1noc(C)c1-c1ccc(-c2cc(C(N)=O)c(NC(N)=O)s2)c(O[C@H]2CCNC2)c1 | > 30 min
CN(C)c1cccc(-c2cnc(Nc3cccnc3)c3c2CCO3)c1 | 5.25 min
CC(C)(C)C1CCc2[nH]c3ccccc3c(=O)c2C1 (stereo unspecified) | 18.7 min

— PubChem BioAssay AID1508591
